This is an account of results in US20160287602A1, “METHODS FOR PROMOTING MOTOR NEURON SURVIVAL” (PRESIDENT AND FELLOWS OF HARVARD COLLEGE, priority 2013, published 2016).

“Also recorded” adds a separate entry of the source.

The subject of test [1] is SOD1^G93A (SOD1^G93A/Hb9::GFP) mouse ESC derived MNs. Briefly: MN survival after trophic factor withdrawal, mixed culture. It is filed as cell-based. The conditions noted are these: trophic factor withdrawal, 3 days; SOD1^G93A/Hb9::GFP MNs. From the text: (§1) In the present study, we have screened highly specific small molecule kinase inhibitors to identify those which could promote MN survival. For the screen, we generated MNs from wild-type (Hb9::GFP) and SOD1^G93A (SOD1^G93A/Hb9::GFP) mouse ESCs using published protocols (Di Giorgio et al., 2007). We withdrew trophic factors as a standard method to induce MN death. Cell plating density as well as timing for initiation and duration of trophic factor withdrawal were used exactly as published to achieve ˜80% MN death in 3 days (FIG. 1A) (Yang et al., 2013). […] We continued to work with this compound class as it reproducibly promoted survival of both MNs types and the effect was robust. We further reasoned that since this compound class promoted survival of both MN types, the probability of its working in other contexts such as on human MNs and in the ALS mouse model was maximum.
High expression of Aurora kinases is associated with various types of cancer (Sen et al., 1997; Reichardt et al., 2003; Tchatchou et al., 2007) and there are many AKIs including VX-680 and ZM447439 that are in clinical trials for anti-cancer drug development.
(§2) Trophic factors were removed and ZM447439 was added to the cultures as previously and MN survival was analyzed on day 7, 14 & 21.

Test [2] relates to wild-type (Hb9::GFP) mouse ESC derived MNs. The test is described as above. The conditions noted are these: for survival of MNs (number of surviving MNs): trophic factor withdrawal, 3 days, wild-type Hb9::GFP MNs. The test is classed as cell-based.
Text: as §1, with “maximum. […]” for “maximum.”
as §2

Test [3] concerns FACS purified Hb9::GFP MNs. Briefly: MN survival after trophic factor withdrawal, FACS purified MN culture. It is filed as cell-based, mouse. The conditions noted are these: FACS purified MN cultures, trophic factors withdrawn, FIG. 1C. From the text: ESC-derived MN culture achieves ˜30%-50% MN differentiation efficiency and is therefore highly heterogeneous. To examine whether AKIs specifically act in a cell-autonomous or non-cell-autonomous manner, we established a highly enriched MN culture through FACS purification based on Hb9::GFP reporter expression. […] Next, we asked whether AKIs exert their survival promoting effect only cell-autonomously or whether they also function non-cell-autonomously to rescue MN death. To address this question we produced astrocyte conditioned medium (ACM) by incubating primary murine astrocytes with AKIs (VX-680 and ZM447439). The ACM was then dialyzed using a dialyzer with pore size appropriate for eliminating residual AKIs.

In test [4] the test system is SOD1^G93A (SOD1^G93A/Hb9::GFP) mouse ESC derived MNs. The conditions noted are these: previous small molecule survival screen (Yang et al., 2013); cited from earlier work.
For test [5], the system named is human iPSC derived MNs (healthy control, SOD1, TDP-43, C90RF72). The note with it: human MNs derived from wild-type and ALS-patient-iPSCs (Yang et al., 2013); cited from earlier work.
The subject of test [6] is wild-type (Hb9::GFP) mouse ESC derived MNs. The conditions noted are these: previous small molecule survival screen (Yang et al., 2013); cited from earlier work.
For test [7] the following is noted: ALS (Miller et al., 2007); cited from earlier work.
In test [8] the test system is synaptophysin in SOD1^G93A/Hb9::GFP MN cultures. Briefly: Synaptophysin immunoblotting. It is filed as cell-based, mouse.
The subject of test [9] is Prkarlb. Briefly: Prkar1b immunostaining in surviving MNs. It is filed as cell-based, mouse. The conditions noted are these: absence of TFs.
Test [10] has as its system synaptophysin in Hb9::GFP MN cultures. Briefly: Synaptophysin immunoblotting. The test is classed as cell-based, mouse. (In general: Immunoblotting shows a protein as a band on a membrane.)
Test [11] has as its system Hb9::GFP and SOD1^G93A/Hb9::GFP MNs. Briefly: Microarray analysis of gene expression in MNs. It is filed as cell-based, mouse. The conditions noted are these: compound in the absence of TFs versus -TF. An excerpt: (§3) Next we sought to investigate the mechanism by which AKIs promote MN survival. To evaluate this comprehensively we performed microarray analysis to compare gene expression between MNs cultured with: 1) Trophic factors (+TF), 2) No trophic factors (−TF), 3) VX-680 in the absence of TFs, and 4) ZM447439 in the absence of TFs. […] Gene expression was compared between +TF and −TF, VX-680 and −TF, and ZM447439 and −TF. With a cut off of more than 3 fold difference, there were 85 genes overlapping in all three comparison in Hb9::GFP MNs and 57 in SOD1^G93A/Hb9::GFP MNs. We found 39 overlapping genes when we compared both types of MNs (FIG. 5B). […] We analyzed the shortlist of 39 genes by using DAVID functional annotation bioinformatics microarray analysis software to find the potential pathways involved in MN survival. […] PKA is known to phosphorylate BAD protein, leading to increased cell survival (Jose M. LIZCANO et al., 2000; Julian Downward et al., Nature cell biology 1999; Komaki S et al., Neurosci Lett 2012). […] We further investigated this pathway by lentivirus knockdown of Prkarlb.

Test [12] concerns HuES-3/Hb9::GFP human ESC derived MNs. Briefly: Human ESC derived MN survival after trophic factor withdrawal. The test is classed as cell-based. The conditions noted are these: trophic factors withdrawn; AraC pre-treated cultures. An excerpt:
We generated MNs from a human ESC line expressing an HB9::GFP transgene [HuES-3/Hb9::GFP (Di Giorgio et al., 2008)]. Human ESC derived MN cultures were pre-treated with AraC to eliminate progenitor cells. We induced MN death by again withdrawing trophic factors. […] We also investigated the toxic effect of SOD1^G93A astrocytes on human ESC derived MN survival. We found significant death of human MNs cultured on mutant astrocytes.

Test [13] relates to MNs. Briefly: Lentivirus knockdown of Prkarlb, MN survival. It is filed as cell-based, mouse.
Text: as §3

The subject of test [14] is phosphorylated BAD (pBAD). Briefly: Phosphorylated BAD immunostaining in surviving MNs. The test is classed as cell-based, mouse. The note with it: absence of TFs.
Test [15] concerns human iPSC derived MNs (healthy control, SOD1, TDP-43, C90RF72). Briefly: Human iPSC derived MN survival. The conditions noted are these: all human iPSC derived MN cultures; AraC treated. The test is classed as cell-based. An excerpt:
We produced MNs from human iPSCs lines including a healthy control, two ALS patients expressing confirmed mutations in SOD1 (Boulting et al., 2011), two with mutations in TDP-43 and one in C90RF72. We treated these cultures with AraC to minimize the number of proliferating progenitors. […] We also examined the effect of SOD 1^G93A astrocytes co-culture on iPSC derived MNs. We found no toxic effect on survival in any of the patient iPSC derived MNs, but we did observe decreased MN survival in the control iPSC derived MNs. […] We also looked at the effect of AKIs on morphology and synapse formation. […] In addition, by immunoblot we observed that ZM447439 enhanced synaptic protein, synaptophysin, expression in both the presence and absence of trophic factors.

The subject of test [16] is Hb9::GFP MNs. Briefly: Number of synapses per MN (synapsin/PSD-95 co-localization, automated imager). It is filed as cell-based, mouse. From the text:
(§4) To examine whether MNs kept alive by AKIs maintain morphological integrity we carried out a series of analyses on surviving MNs in the absence of trophic factors. […] We also used an automated imager to analyze the number of synapses per MN by counting co-localized regions positive for the presynaptic marker synapsin and the postsynaptic marker PSD-95.

In test [17] the test system is SOD1^G93A/Hb9::GFP MNs. The description is as above. The test is classed as cell-based, mouse.
Text: as §4

The conditions of test [18]: ALS drug candidates; cited from earlier work.

On to `COc1cc2ncnc(Nc3ccc(NC(=O)c4ccccc4)cc3)c2cc1OC.Cl` [4-4-Ben, N-[4-[(6,7-Dimethoxy-4-quinazolinyl)amino]phenyl] benzamide Hydrochloride], for which the “survival of MNs (number of surviving MNs)” value in test [1] and in test [2] was “consistently increased the survival of MNs” throughout. Besides, the MN survival entry in [3] is recorded as “rescued MN survival in a dose dependent fashion”.

For the compound `O=C1Cc2c([nH]c3ccc(Br)cc23)-c2ccccc2N1` [Kenpaullone], the “healthy survival of MNs” value in test [4] and in [6] was “impressive ability to prolong the healthy survival” throughout. For the same compound, the “survival of human MNs” value in [5] was “able to improve the survival”.

In the case of `Nc1nc2ccc(OC(F)(F)F)cc2s1` [Riluzole], the functional improvement result in test [7] is on record as “very little functional improvement; also recorded: little functional improvement”.

Consider `Cc1cc(Nc2cc(N3CCN(C)CC3)nc(Sc3ccc(NC(=O)C4CC4)cc3)n2)[nH]n1` [VX-680, Tozasertib], for which the “expression of synaptic protein synaptophysin” value in test [8] and in test [10] was “increased expression” throughout. In addition, in [9], the “levels of Prkarlb” value is “increased levels”. The “survival of MNs (number of surviving MNs)” value in test [1] was “consistently increased the survival of MNs; also recorded: most potent and robust at increasing survival”; in test [2], “consistently increased the survival of MNs; also recorded: most potent and robust at increasing survival”. For the same compound, the “expression of genes related to synapse formation (Syt1, Snap25 and Sv2c, Map2 and Dcx)” value in [11] is “upregulated”. The “human MN survival” value in test [12] is on record as “rescued human MN death”. In addition, the “MN survival on knocking down Prkarlb in the presence of the compound” value in [13] is listed as “effectively decreased MN survival”. Also, the “levels of phosphorylated BAD (pBAD)” value in test [14] is “increased levels”. Besides, the “survival effect in dose dependent assay, comparison among AKIs” value in test [2] (mixed MN culture, FIG. 1B) was “most effective and potent in promoting MN survival”. The MN survival entry was “substantially increase MN survival” in [15] and “rescued MN survival in a dose dependent fashion” in test [3]. For the same compound, the “number of synapses per MN” value in test [16] (absence of trophic factors, Hb9::GFP MNs) is “preserved the number of synapses”; in [16] (neurotrophin containing medium), “increased the number of synapses per MN”; in test [17] (absence of trophic factors, SOD1^G93A/Hb9::GFP MNs) it was “preserved the number of synapses”; in test [17] (neurotrophin containing medium), “increased the number of synapses per MN”.

As to `CCCN[C@@H]1CCc2nc(N)sc2C1` [dexpramipexole], in test [18], the “outcome of phase III clinical trials” value is reported as “failed”.

Take `CC(C)CCC[C@@H](C)[C@H]1CC[C@H]2[C@@H]3CCC4=CC(=NO)CC[C@]4(C)[C@H]3CC[C@]12C` [olesoxime]: the “outcome of phase III clinical trials” value in test [18] is on record as “failed”.
